Assay results as given in patent US20250213707A1, “COMPOUND FOR INCREASING EFFICACY OF ONCOLYTIC VIRUSES” (ABLEVIA BIOTECH GMBH, priority 2022, published 2025).

Key:
[1] = system: IgG from human donors (anti-AAV antibodies); experiment: Screen for anti-AAV antibodies in human sera based on cyclic 14-amino-acid AAV peptides on microarrays (Table 2); assay type: binding; set-up: key: X: the deduplicated aggregate of the respective top 50 peptide hits for each donor was compiled and designated as group I; conditions: human donor IgG; circularized AAV peptides; top 50 peptide hits for each donor
Method: More than 1200 cyclic peptides derived from the sequences of human and rhesus monkey AAV sequences and artificial AAV sequences according to Table 2 and with a sequence length of 14 amino-acids each were synthesized.
Samples obtained from human donors were screened for antibodies against these AAV-derived peptides immobilized on microarrays. To this end, IgG was prepared from blood obtained from the human donors by protein G purification. Each IgG sample was incubated with the peptide microarrays and Ig binding signals were detected by fluorescence. All antibody binding signals to the peptides on the arrays were background subtracted and ranked for each sample and a deduplicated aggregate of the respective top 250 peptide hits for each donor with the corresponding protein sequence of origin (as obtained from UniProt or other sources) was compiled (designated as group II). Further, the deduplicated aggregate of the respective top 50 peptide hits for each donor was compiled and designated as group I.
Altogether, group I contains 47 distinct peptide hits (assigned to the corresponding AAV vectors in Table 2) and group II yielded 172 distinct peptide hits. Evidently, group I is a subset of group II.

[2] = system: polyclonal antibody ab6982; experiment: Epitope mapping of polyclonal antibody ab6982 against cyclic peptides of Ad5 fiber and hexon (peptide array); assay type: binding, rabbits; conditions: cyclic peptides of fiber protein (clusters 1-7)
[3] = system: IgG from human donors (anti-AAV antibodies); experiment: Screen for anti-AAV antibodies in human sera, 2452 linear 15-amino-acid AAV peptides on microarrays (Table 1); assay type: binding; set-up: key to group I: X: the deduplicated aggregate of the respective top 10 peptide hits for each donor was compiled and designated as group I; key to group II: X: the deduplicated aggregate of the respective top 25 peptide hits for each donor was compiled and designated as group II; key to group III: X: the deduplicated aggregate of the respective top 50 peptide hits for each donor was compiled and designated as group III; conditions: human donor IgG binding to linear 15-amino-acid AAV peptides on microarray, fluorescence; for group II: membership in deduplicated aggregate of top 25 peptide hits for each donor; for group III: membership in deduplicated aggregate of top 50 peptide hits for each donor
Summary of the method: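 Protein G-purified IgG from human donor blood incubated with microarrays of 2452 linear 15-mer peptides from 16 AAVs; binding read by fluorescence. Background-subtracted signals ranked per donor, with top 10, 25, 50 and 250 hits pooled and deduplicated into groups I-IV.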

For “1902 (DEEEIRTTNPVATE; REGION 1..14: note = peptide derived from viral capsid protein) [compound 1902]”, the “group I” value [1] was “X”.

“1899 (SESVPDPQPIGEPP; REGION 1..14: note = peptide derived from viral capsid protein) [compound 1899]” was tested, and the “group I” value [1] was “X”.

In the case of “1920 (KTAPGKKRPVDQSP; REGION 1..14: note = peptide derived from viral capsid protein) [compound 1920]”, the “group I” value [1] is reported as “X”.

“1928 (DKAYDQQLQAGDNP; REGION 1..14: note = peptide derived from viral capsid protein) [compound 1928]” was tested, and the “group I” value [1] was “X”.

In the case of “1917 (HYFGYSTPWGYFDF; REGION 1..14: note = peptide derived from viral capsid protein) [compound 1917]”, the “group I” value [1] is reported as “X”.

With “1912 (PQILIKNTPVPADP; REGION 1..14: note = peptide derived from viral capsid protein) [compound 1912]” the “group I” value [1] was “X”.

“1933 (DKDKFFPMSGVMIF; REGION 1..14: note = peptide derived from viral capsid protein) [compound 1933]” was tested, and the “group I” value [1] was “X”.

“1907 (IFNIQVKEVTTSNG; REGION 1..14: note = peptide derived from viral capsid protein) [compound 1907]” was tested, and the “group I” value [1] was “X”.

In the case of “1923 (TAPGKKRPVDQSPQ; REGION 1..14: note = peptide derived from viral capsid protein) [compound 1923]”, the “group I” value [1] is reported as “X”.

“1922 (SESVPDPQPLGEPP; REGION 1..14: note = peptide derived from viral capsid protein) [compound 1922]” was tested, and the “group I” value [1] was “X”.

In the case of “1935 (EEEIKTTNPVATEE; REGION 1..14: note = peptide derived from viral capsid protein) [compound 1935]”, the “group I” value [1] is reported as “X”.

For “1895 (ANNLTSTVQIFADS; REGION 1..14: note = peptide derived from viral capsid protein) [compound 1895]”, the “group I” value [1] was “X”.

With “1932 (DEEEIKATNPVATE; REGION 1..14: note = peptide derived from viral capsid protein) [compound 1932]” the “group I” value [1] was “X”.

In the case of “1924 (YDQQLKAGDNPYLK; REGION 1..14: note = peptide derived from viral capsid protein) [compound 1924]”, the “group I” value [1] is reported as “X”.

In the case of “1934 (LQQQNTAPQIGTVN; REGION 1..14: note = peptide derived from viral capsid protein) [compound 1934]”, the “group I” value [1] is reported as “X”.

With “1904 (YHLNGRDSLVNPGP; REGION 1..14: note = peptide derived from viral capsid protein) [compound 1904]” the “group I” value [1] was “X”.

With “1938 (PLVDQYLYRFVSTN; REGION 1..14: note = peptide derived from viral capsid protein) [compound 1938]” the “group I” value [1] was “X”.

“1913 (QLKAGDNPYLRYNH; REGION 1..14: note = peptide derived from viral capsid protein) [compound 1913]” was tested, and the “group I” value [1] was “X”.

With “1919 (GKKRPVDQSPQEPD; REGION 1..14: note = peptide derived from viral capsid protein) [compound 1919]” the “group I” value [1] was “X”.

For “1926 (DKAYDRQLDSGDNP; REGION 1..14: note = peptide derived from viral capsid protein) [compound 1926]”, the “group I” value [1] was “X”.

“1918 (APGKKRPVDQSPQE; REGION 1..14: note = peptide derived from viral capsid protein) [compound 1918]” was tested, and the “group I” value [1] was “X”.

For “1897 (GNTSQQQTDRNAFY; REGION 1..14: note = peptide derived from viral capsid protein) [compound 1897]”, the “group I” value [1] was “X”.

In the case of “1927 (GTNTMATGSGAPMA; REGION 1..14: note = peptide derived from viral capsid protein) [compound 1927]”, the “group I” value [1] is reported as “X”.

For “1903 (NYNKSVNVDFTVDT; REGION 1..14: note = peptide derived from viral capsid protein) [compound 1903]”, the “group I” value [1] was “X”.

In the case of “1914 (SFITQYSTGQVSVE; REGION 1..14: note = peptide derived from viral capsid protein) [compound 1914]”, the “group I” value [1] is reported as “X”.

With “1910 (FNIQVKEVTTNDGV; REGION 1..14: note = peptide derived from viral capsid protein) [compound 1910]” the “group I” value [1] was “X”.

“1892 (DSQWLGDRVITTST; REGION 1..14: note = peptide derived from viral capsid protein) [compound 1892]” was tested, and the “group I” value [1] was “X”.

For “1901 (PQYGYLTLNNGSQA; REGION 1..14: note = peptide derived from viral capsid protein) [compound 1901]”, the “group I” value [1] was “X”.

In the case of “1929 (TESVPDPQPIGEPP; REGION 1..14: note = peptide derived from viral capsid protein) [compound 1929]”, the “group I” value [1] is reported as “X”.

With “1898 (LEDNLSEGIREWWD; REGION 1..14: note = peptide derived from viral capsid protein) [compound 1898]” the “group I” value [1] was “X”.

For “PVPADPPTTFNQSK (REGION 1..14: note = peptide derived from viral capsid protein) [SEQ ID NO: 2027]”, the “antibody binding signal ranking from the microarray experiment” value (shortened to “antibody binding signal ranking”) [2] was 047, the “group II” value [3] was “X” and the “group III” value [3] was “X”.

“SKTANDNNNSNFPW (REGION 1..14: note = peptide derived from viral capsid protein) [SEQ ID NO: 1995]” was tested, and the “antibody binding signal ranking” value [2] was 035, the “group I” value ([3]; membership in deduplicated aggregate of top 10 peptide hits for each donor) was “X” and the “group II” value [3] was “X”. The “group III” value [3] was “X”.

For “QVKEVTTNDGVTTI (REGION 1..14: note = peptide derived from viral capsid protein) [SEQ ID NO: 2048]”, the “antibody binding signal ranking” value [2] was 173, the “group II” value [3] was “X” and the “group III” value [3] was “X”.

“1896 (KIFNIQVKEVTTSN; REGION 1..14: note = peptide derived from viral capsid protein) [compound 1896]” was tested, and the “group I” value [1] was “X”.

With “1921 (PEIQYTSNYNKSVN; REGION 1..14: note = peptide derived from viral capsid protein) [compound 1921]” the “group I” value [1] was “X”.

KKRILEPLGLVEEA [SEQ ID NO: 2023] was tested, and the “antibody binding signal ranking” value [2] was 023, the “group II” value [3] was “X” and the “group III” value [3] was “X”.

With KSTSVDFAVNTEGV [SEQ ID NO: 2025] the “antibody binding signal ranking” value [2] was 039, the “group II” value [3] was “X” and the “group III” value [3] was “X”.

With “1937 (DDEDKFFPMSGVMI; REGION 1..14: note = peptide derived from viral capsid protein) [compound 1937]” the “group I” value [1] was “X”.

For “1900 (LIKNTPVPADPPTT; REGION 1..14: note = peptide derived from viral capsid protein) [compound 1900]”, the “group I” value [1] was “X”.

RDTDMFGQIADNNQ [SEQ ID NO: 2037] was tested, and the “antibody binding signal ranking” value [2] was 073, the “group II” value [3] was “X” and the “group III” value [3] was “X”.

For EGASYQVPPQPNGM [SEQ ID NO: 2061], the “antibody binding signal ranking” value [2] was 108, the “group II” value [3] was “X” and the “group III” value [3] was “X”.

With “1893 (DTNGVYSEPRPIGT; REGION 1..14: note = peptide derived from viral capsid protein) [compound 1893]” the “group I” value [1] was “X”.
